Measured values reported in US8575376B2, “Steroide anionic compounds, method of their production, usage and pharmaceutical preparation involving them” (Ustav Organicke Chemie A Biochemie Akademie Ved Ceske …, priority 2009, dated 2013).

Tests used:
Wistar rats = experiment: Thermal nociception, plantar test (limb and tail withdrawal latency); format: in vivo, rat
Method: The effect of the compound from example 9 was assessed on acute nociception in rat. Pain was evaluated by measurement of paw/tail withdrawal latencies. Male Wistar rats (Velaz, Czech Republic) were used. Animals were kept at 22° C. (relative humidity was 40-70%) under a 12-hour light/12-hour dark cycle. All experiments were approved by the Committee for Animal Care and conducted in accordance with the ethical guidelines of the International Association for the Study of Pain. The animals were randomly divided into experimental and testing groups groups. The compound from example 9 was dissolved in β-cyclodextrine (the concentration 1.0 mg/ml and 10 mg/kg injected intraperitoneally or β-cyclodextrine injected intraperitoneally in same volume).
Thermal nociception was determined using plantar test equipment (Ugo Basile, Italy). The latency (in seconds) of forelimb, hindlimb or tail withdrawals to the noxious thermal stimulation was measured. Each animal was placed individually in a clear plastic box with a clear glass floor, and was allowed to acclimatize for 10 min; the temperature and humidity in the testing room were kept in the same range as those in the housing rooms. The latencies were measured 3 times per session, separated by a minimum interval of 5 min, and the mean value was used for further analysis. Infrared intensity was set to 40% and the maximum cutoff value was set at 22 seconds to avoid thermal injury. The testing box was cleaned after each session.

C6 glioma cell line = experiment: Growth of glioma cells in culture; format: cell-based; details: 0.1 and 1 μg in 50 ml β-cyclodextrine solution, 3 div + 6 days
Method: The effect of compound from the example 9 (the model molecule) on growth of glioma cells was studied on C6 glioma cell line (ATTC, Rockville). The model molecule was tested at doses of 0.1 and 1 μg dissolved in 50 ml of β-cyclodextrine solution. Parallel control groups were administered by cholesterol at doses of 0.1 and 1 μg dissolved in 50 ml of β-cyclodextrine solution. The last group included in the experiment was left intact without any application.
The cells were cultivated in vitro for 3 days (div). Afterwards tested molecule was applied and the cell culture was studied for additional 6 days. Olympus microscope with phase contrast and 200× magnification was used for the cell monitoring.

rats [1] = experiment: Ischemic-hypoxic brain damage (bilateral carotid occlusion + 10% O2): AAPA, rotarod, beam walking; format: in vivo, rat
Method: The effect of compound from example 9 on cognitive coordination and motor activity was examined in stroke model of ischemic brain injury. Ischemic-hypoxic damage was induced by bilateral occlusion of common carotid arteries and subsequent confinement in box with 10% O2 (for 30 min). The animals were injected i.p. by compound from example 9 dissolved in β-cyclodextrine (1 mg/kg) immediately after their removal from box. Ischemic group was injected only by β-cyclodextrine in the same time and volume. Surgery was conducted under anesthesia (xylazine 6 mg/kg, thiopental 50 mg/kg).
It is known that ischemia-hypoxia causes neuronal necrosis in specifically vulnerable areas of brain. The two-vessel occlusion/hypoxic model gives rise to stroke changes, for example in cells of the hippocampus, caudatoputamen and neocortex. As such structures are intimately involved in memory, cognitive and motor processes, ischemia/hypoxia leads to impairment in these functions. Used animal model of stroke damage dealing with ischemia/hypoxia has enabled the identification of deleterious phenomena that may be corrected or neutralized by drugs.
The effect of ischemic was evaluated a week after surgical procedures in AAPA task, beam walking and rotarod. Ischemia led to deterioration of motor activity (rotarod and beam walking) and deficit in cognitive coordination.

rats [2] = experiment: Prepulse inhibition in MK-801 animal model of schizophrenia; format: in vivo, rat
Method: The effect of i.p. administration of the compound from example 9 at doses of 0.1 and 1 mg/kg on sensorimotor gating in prepulse inhibition (PPI) test was evaluated. All testing occurred within the startle chamber (SR-LAB, San Diego Instruments, USA), which consisted of a clear Plexiglas cylinder (8.2 cm diameter, 10×20 cm) that rested on a piezoelectric accelerometer inside a ventilated and illuminated chamber. The piezoelectric accelerometer detected and transduced motion within the cylinder. A high frequency loudspeaker inside the chamber (24 cm above the animal) produced both a background noise of 62 dB and the acoustic stimuli. All rats were initially tested in a short session (5 min acclimatization period plus 5 single stimuli; 120 dB strong) 2 days before the experiment.
The background noise (62 dB) was presented alone for 5 min (acclimatization period) and then continued throughout the session. […] The PPI was measured as a difference between the average responses to the single pulse and prepulse-pulse trials, and was expressed as a percent of the PPI [100−(mean response for prepulse-pulse trials/startle response for single pulse trials)×100]. […]

rats [3] = experiment: Elevated plus maze (anxiety); format: in vivo, rat
Method: The effect of i.p. administration of compound from example 9 in doses of 0.001, 0.01, and 10 mg/kg on behaviour in elevated plus maze was evaluated. The number of entrances into open arms and the total time spent in open arms were assessed.
The apparatus consisted of two opposite open arms (45 cm×10 cm) crossed at right angles with two opposite arms of the same size enclosed by walls 40 cm high, except for the central part where the arms crossed. The whole apparatus was elevated 50 cm above the floor.

[4] = 1 mg/kg i.p. immediately after hypoxia, tested a week later

CC(=O)[C@H]1CC[C@H]2[C@@H]3CC[C@@H]4C[C@H](OC(=O)[C@@H](N)CCC(=O)O)CC[C@]4(C)[C@H]3CC[C@]12C [Example 9, 20-Oxo-5β-pregnan-3α-yl L-glutamyl 1-ester]
limb withdrawal latency to thermal stimulus (Wistar rats; 1 mg/kg i.p.): Such an effect was not however observed | tail withdrawal reaction to thermal stimulus (Wistar rats; 10 mg/kg i.p.): suppressed reactivity to painful stimuli | limb withdrawal latency to thermal stimulus (Wistar rats; 10 mg/kg i.p., p<0.001): significantly prolonged interval of resistance to a painful stimulus | tail withdrawal reaction to thermal stimulus (Wistar rats; lower dose (1 mg/kg i.p.)): did not yield such an effect | effect on growth of glioma cells (C6 glioma cell line): overall slight cytostatic and pro-differentiation effect on glioma cells | total path in AAPA after ischemia/hypoxia (rats [1]; 1 mg/kg i.p.): None of the experimental condition affected locomotion in AAPA | cognitive deficit in AAPA (entrances) after ischemia/hypoxia (rats [1]; [4]): improves cognitive deficit induced by ischemic/hypoxic procedures in AAPA task | motor changes in rotarod and beam walking after ischemia/hypoxia (rats [1]; [4]): has no effect on disturbance of motor changes in rotarod and beam walking test | prepulse inhibition deficit induced by MK-801 (rats [2]; Example 9 0.1 or 1 mg/kg i.p. co-administered with MK-801 0.1 mg/kg): blocked the exacerbating effect of MK-801 | prepulse inhibition (rats [2]; Example 9 alone, 0.1 and 1 mg/kg i.p.): had no influence on prepulse inhibition | anxiolytic effect in elevated plus maze (rats [3]; 0.001, 0.01 and 10 mg/kg i.p.): pronounced dose-dependent anxiolytic effect | number of entries into open arms (rats [3]; 10 mg/kg i.p., p<0.05 vs control): significant increase of number of entries into open arms
